How the values were obtained:
[1] = test system: cultured human mast cells (CHMC); test: CHMC low cell density IgE activation: tryptase assay; type: cell-based; conditions: anti-IgE
Method in brief: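 Degranulation was triggered with anti-IgE for 30 minutes at 37° C in cultured human mast cells seeded at low density (1000-1500 cells/well, chosen by donor) after a 1 hr equilibration in MT buffer. Released tryptase in cleared supernatant was quantified with a tryptase substrate at room temperature for 30 minutes.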

[2] = test system: cultured human mast cells (CHMC); test: CHMC low cell density ionomycin activation: tryptase assay; type: cell-based

IC50 [1] | IC50 [2] | Molecule
0.986 µM | > 10 µM | Cc1cc(Nc2nc(Nc3cccc(OCC(=O)N4CCOCC4)c3)ncc2F)cc(C)c1O [R940254, N4-(3,5-Dimethyl-4-hydroxyphenyl)-5-fluoro-N2-[3-(N-morpholino)carbonylmethyleneoxyphenyl]-2,4-pyrimidinediamine]
3.15 µM | > 10 µM | CNC(=O)COc1cccc(Nc2nc(Nc3cccc(C(C)(C)C)c3)ncc2F)c1 [R940267, N2-(3-tert-Butylphenyl)-N4-[3-(N-methylamino)carbonylmethyleneoxyphenyl]-5-fluoro-2,4-pyrimidinediamine]
1.02 µM | > 10 µM | COC(=O)COc1cccc(Nc2ncc(F)c(Nc3cc(C)c(O)c(C)c3)n2)c1 [R945139, N4-(3,5-Dimethyl-4-hydroxyphenyl)-5-fluoro-N2-(3-methoxycarbonylmethyleneoxyphenyl)-2,4-pyrimidinediamine]
10 µM | > 10 µM | Nc1cccc(Nc2nc(Nc3cccc(NC(=O)CCC(N)C(=O)O)c3)ncc2F)c1 (racemic) [R950255, (±)-N4-(3-Aminophenyl)-5-fluoro-N2-[3-(3-carboxy-3-amino)propylenecarbonylaminophenyl]-2,4-pyrimidinediamine]
0.566 µM | > 10 µM | CNC(=O)CCn1ncc2cc(Nc3ncc(F)c(Nc4ccc(Cl)nc4)n3)ccc21 [R935378, N4-(6-Chloro-3-pyridyl)-5-fluoro-N2-[1-[2(N-methylaminocarbonyl)ethyl]indazoline-5-yl]-2,4-pyrimidinediamine]
0.404 µM | > 10 µM | CNC(=O)COc1cccc(Nc2ncc(F)c(Nc3ccc4c(c3)C(NC(C)=O)CCO4)n2)c1 (centres unmarked) [R950393, N4-(4-Acetylamino-3,4-dihydro-2H-1-benzopyran-6-yl)-5-fluoro-N2-[3-(N-methylamino)carbonylmethyleneoxyphenyl]-2,4-pyrimidinediamine]
0.724 µM | > 10 µM | O=C(COc1cccc(Nc2ncc(F)c(Nc3cc(Cl)c(O)c(Cl)c3)n2)c1)N1CCOCC1 [R950187, N4-(3,5-Dichloro-4-hydroxyphenyl)-5-fluoro-N2-[3-(N-morpholino)carbonylmethyleneoxyphenyl]-2,4-pyrimidinediamine]
0.401 µM | > 10 µM | COC(=O)COc1cc(Nc2ncc(F)c(Nc3cccc(O)c3)n2)cc(OCC(=O)OC)c1 [R926926, N2-[3,5-Bis(methoxycarbonylmethyleneoxy)phenyl]-5-fluoro-N4-(3-hydroxyphenyl)-2,4-pyrimidinediamine]
3 µM | > 10 µM | ON=C(c1ccccc1)c1cccc(Nc2ncc(F)c(Nc3cccc(C(=NO)c4ccccc4)c3)n2)c1 [R950380, N2,N4-Bis(3-phenylcarbonyloximephenyl)-5-fluoro-2,4-pyrimidinediamine]
0.135 µM | > 10 µM | Cc1cc(Nc2ncc(F)c(Nc3ccc4cn[nH]c4c3)n2)cc(Cl)c1O [R935264, N2-(3-Chloro-4-hydroxy-3-methylphenyl)-5-fluoro-N4-(indazoline-6-yl)-2,4-pyrimidinediamine]
> 10 µM | > 10 µM | O=C(O)COc1cccc(Nc2ncc(F)c(Nc3cccc(O)c3)n2)c1 [R945126, N2-(3-Carboxymethyleneoxyphenyl)-5-fluoro-N4-(3-hydroxyphenyl)-2,4-pyrimidinediamine]
0.239 µM | > 10 µM | Fc1cnc(Nc2ccc3cn[nH]c3c2)nc1Nc1ccc2cn[nH]c2c1 [R935188, N2,N4-Bis(indazolin-6-yl)-5-fluoro-2,4-pyrimidinediamine]
0.208 µM | > 10 µM | COC(=O)C1Cc2cc(Nc3ncc(F)c(Nc4cccc(C(F)(F)F)c4)n3)ccc2O1 (racemic) [R927028, (±)-N2-(2,3-Dihydro-2-methoxycarbonylbenzofuran-5-yl)-5-fluoro-N4-(3-trifluorophenyl)-2,4-pyrimidinediamine]
0.873 µM | > 10 µM | Cc1noc(COc2ccc(Nc3ncc(F)c(Nc4ccc(OC(C)C)cc4)n3)cc2)n1 [R935142, 5-Fluoro-N4-(4-isopropoxyphenyl)-N2-[4-(3-methyl-1,2,4-oxadiazol-5-yl)methyleneoxyphenyl]-2,4-pyrimidinediamine]
10 µM | > 10 µM | CNC(=O)COc1cccc(Nc2ncc(F)c(Nc3ccc(OC)c(C(=O)OC)c3)n2)c1 [R940300, 5-Fluoro-N2-[3-(methylaminocarbonylmethyleneoxy)phenyl]-N4-(3-methyloxycarbonyl-4-methoxyphenyl)-2,4-pyrimidinediamine]
1.41 µM | > 10 µM | CCNC(=O)Oc1cccc(Nc2nc(Nc3cccc(OCC(=O)NC)c3)ncc2F)c1 [R926919]
0.189 µM | > 10 µM | OCCCn1ncc2cc(Nc3ncc(F)c(Nc4ccc5c(c4)OCCO5)n3)ccc21 [R935302, N4-(3,4-Ethylenedioxyphenyl)-5-fluoro-N2-[1-(3-hydroxypropyl)indazoline-5-yl]-2,4-pyrimidinediamine]

Continued, molecule first:

Molecule | IC50 [1] | IC50 [2]
CCOC(=O)c1cnc(Nc2ccc(OCC(=O)OC)cc2)nc1Nc1ccc(OCC(=O)O)cc1 [R926583, N4-(4-Carboxymethyleneoxyphenyl)-5-ethoxycarbonyl-N2-(4-methoxycarbonylmethyleneoxyphenyl)-2,4-pyrimidinediamine] | > 10 µM | > 10 µM
Cn1nnnc1COc1ccc(Nc2ncc(F)c(Nc3cccc(O)c3)n2)cc1 [R920860, 5-Fluoro-N4-(3-hydroxyphenyl)-N2-[4-(1-methyl-1,2,3,4-tetrazol-5-yl)methyleneoxyphenyl]-2,4-pyrimidineamine] | 1.01 µM | > 10 µM
Fc1cnc(Cl)nc1Nc1ccc2c(c1)CNCC2 [Compound R926912] | > 10 µM | > 10 µM
Fc1cnc(Cl)nc1Nc1cccc(-c2nnn[nH]2)c1 [Compound R926853] | > 10 µM | > 10 µM
OCCOc1cccc(Nc2ncc(CO)c(Nc3cccc(O)c3)n2)c1 [R926735, 5-(Hydroxymethyl)-N2-[3-(2-hydroxyethyleneoxy)phenyl]-N4-(3-hydroxyphenyl)-2,4-pyrimidinediamine] | 3.71 µM | > 10 µM
COC(=O)COc1ccc(Nc2ncc(F)c(Nc3ccc(OCC(=O)OC(C)(C)C)cc3)n2)cc1 [R926572] | 1.8 µM | 6.08 µM
O=C1COc2cc(Nc3nc(Nc4cccc(O)c4)ncc3F)ccc2N1 [R908698] | 1.67 µM | > 10 µM
CNC(=O)COc1cccc(Nc2ncc(F)c(Nc3ccc(OC)c(O)c3)n2)c1 [R926834, 5-Fluoro-N4-(3-hydroxy-4-methoxyphenyl)-N2-[3-(N-methylamino)carbonylmethyleneoxyphenyl]-2,4-pyrimidinediamine] | 0.145 µM | > 10 µM
CNC(=O)COc1cccc(Nc2ncc(F)c(Nc3cccc(Cl)c3)n2)c1 [R926832, N4-(3-Chlorophenyl)-5-fluoro-N2-[3-(N-methylamino)carbonylmethyleneoxyphenyl]-2,4-pyrimidinediamine] | 0.365 µM | > 10 µM
CNC(=O)COc1cccc(Nc2ncc(F)c(Nc3cccc(-c4nnn[nH]4)c3)n2)c1 [R926855, 5-Fluoro-N2-[3-(N-methylamino)carbonylmethyleneoxyphenyl]-N4-[3-(tetrazol-5-yl)phenyl]-2,4-pyrimidinediamine] | > 10 µM | > 10 µM
N2,N4-Bis(methoxycarbonylbenzyl)-5-cyano-2,4-pyrimidinediamine [R925819] | > 10 µM | > 10 µM
